Source: US12370143B2, “Compound or salt thereof and lipid particles” (FUJIFILM Corporation, priority 2018, dated 2025)

How the values were obtained:
[1] = Encapsulation rate of siRNA in nucleic acid lipid particles (Luc2-siRNA); format: physicochemical; details: compound/DSPC/cholesterol/DMG-PEG2000 50/10/38.5/1.5
How it was run: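 Encapsulation rate was calculated as (total − outer-phase siRNA)/total ×100. Total siRNA was quantified spectrophotometrically after lipid-dissolving ethanol precipitation, and unencapsulated siRNA by RiboGreen in TE (ex 485/em 535 nm). The particles were test lipid/DSPC/cholesterol/DMG-PEG2000 at 50/10/38.5/1.5, formed by microfluidic mixing with Luc2-siRNA at pH 4 and dialyzed against PBS.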

[2] = Particle size of nucleic acid lipid particles (Luc2-siRNA); format: physicochemical; details: compound/DSPC/cholesterol/DMG-PEG2000 50/10/38.5/1.5
How it was run: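 Lipid particles formed from oil phase (test lipid/DSPC/cholesterol/DMG-PEG2000, 50/10/38.5/1.5 molar, 20 mmol/L total in ethanol) micromixed 1:3 with Luc2-siRNA in pH 4 acetate buffer (19.7 μmol/L); siRNA/lipid 339 mol/mol, PBS-diluted and dialyzed. Size measured on ELS-Z2 dynamic light scattering.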

[3] = Particle size of lipid particles (no nucleic acid); format: physicochemical; details: lipid particles without nucleic acid; compound/DSPC/cholesterol/DMG-PEG2000 molar ratio 50/10/38.5/1.5; ELS-Z2
Protocol: The compounds described in Examples 1, 9, and 10,1,2-distearoyl-sn-glycero-3-phosphocholine (trade name: COATSOME® MC-8080; NOF corporation), cholesterol (trade name: Cholesterol HP; NIPPON FINE CHEMICAL CO., LTD.), and 1,2-dimyristoyl-rac-glycero-3-(methylpolyoxyethylene 2000) (hereinafter, called DMG-PEG2000) (trade name: SUNBRIGHT® GM-020; NOF corporation) were dissolved in ethanol at a molar ratio of 50/10/38.5/1.5 such that the total lipid concentration became 20 mmol/L, thereby obtaining an oil phase.
A 10 mmol/L acetate buffer having a pH of 4 was used as a water phase and mixed with the oil phase by a micromixer (see JP5288254B) using a syringe pump such that the volume ratio of water phase:oil phase became 6.7:3.3. The mixed solution was diluted 2× with a phosphate buffered saline (PBS), thereby obtaining a dispersion liquid of lipid particles. The dispersion liquid was dialyzed using a dialysis cassette (Slide-A-Lyzer G2, MWCO: 10 kD, Thermo Fisher Scientific) including PBS such that ethanol was removed, thereby obtaining lipid particles containing the compounds described in Examples 1, 9, and 10.
By using the dispersion liquid of lipid particles as it was, the particle size of the lipid particles was measured using a zeta potential/particle size measurement system ELS-Z2 (Otsuka Electronics Co., Ltd.).

[4] = tested on: DMS273 cells constantly expressing Luc; experiment: Target reporter protein (Luc) knockdown in cell, reporter protein assay; format: cell-based; details: Homo sapiens, DMS-273; Luc2-siRNA lipid particles using the compound; siRNA 0.1 to 100 nmol/L; concentration at which Luc expression is knocked down to 50%; read-out: IC50
How it was run: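 Nucleic acid lipid particles added at final 0.1 to 100 nmol/L to DMS273 human SCLC cells stably expressing Luc2, 24 hr exposure then 24 hr further culture after medium change. Luc quantified by Steady Glo luminescence after viable cell count; knockdown efficiency calculated and IC50 taken as concentration giving 50% Luc reduction.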

[5] = tested on: Factor VII (FVII) protein; experiment: Measurement of Factor VII (FVII) protein in mouse plasma after FVII-siRNA lipid particles; format: in vivo, C57BL6/J mice; details: 0.1 mg/kg caudal vein, plasma 24 hours after administration, PBS group = 100%
How it was run: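 C57BL6/J mice (n=3) received FVII-siRNA nucleic acid lipid particles at 0.1 mg/kg into the tail vein; controls got PBS. Each value is the percentage of the PBS-group FVII level.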

[6] = Nucleic acid encapsulation rate of nucleic acid lipid particles (FVII-siRNA); format: physicochemical
How it was run: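 Total nucleic acid was measured by adding 30 μL of 3 mol/L sodium acetate and 9 μL of glycogen to 60 μL of FVII-siRNA lipid particles, then precipitating with 1.5 mL ethanol, centrifuging, air-drying, redissolving in water, and reading on a Nanodrop. Outer-phase nucleic acid came from a RiboGreen assay (ex 485 nm, em 535 nm) on samples diluted 10,000× in 1×TE. Encapsulation (%) = (total − outer)/total × 100.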

[7] = Particle size of nucleic acid lipid particles (FVII-siRNA); format: physicochemical
How it was run: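 Lipid particles formed by micromixing ethanolic ionizable lipid/DSPC/cholesterol/DMG-PEG2000 (50/10/38.5/1.5 mol) with siRNA in pH 4 acetate buffer (3:1 water:oil), diluted with PBS and dialysed against PBS.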

CCCCC/C=C\C/C=C\CCCCCCCCN(CCCCCCCC/C=C\C/C=C\CCCCC)C(=O)OCCN(C)CCN(C)C [Example 1, 2-((2-(dimethylamino)ethyl)(methyl)amino)ethyl di((9Z,12Z)-octadeca-9,12-dien-1-yl)carbamate]
Nucleic acid encapsulation rate [1]: 84%
Particle size (nm) [2]: 66.4 nm
Particle size (nm) [3]: 145.9 nm
IC50 [4]: 13 nM

CCCCC/C=C\C/C=C\CCCCCCCCN(CCCCCCCC/C=C\C/C=C\CCCCC)C(=O)OCCNCCN [Example 9, 2-((2-aminoethyl)amino)ethyl di((9Z,12Z)-octadeca-9,12-dien-1-yl)carbamate]
Nucleic acid encapsulation rate [1]: 92%
Particle size (nm) [2]: 79.5 nm
Particle size (nm) [3]: 127.5 nm
IC50 [4]: 21 nM

CCCCCCCCCCCCCCCCN(CCCCCCCCCCCCCCCC)C(=O)OCCN(C)CCN(C)C [Example 10, 2-((2-(Dimethylamino)ethyl)(methyl)amino)ethyl dihexadecylcarbamate]
Nucleic acid encapsulation rate [1]: 80%
Particle size (nm) [2]: 159.9 nm
Particle size (nm) [3]: 111.2 nm

CCCCCCCCCCC(CCCCCCCC)COC(=O)CCCCCCCCC(CCCCCC)OC(=O)OCCN(CCN(CC)CC)C(C)C (centres unmarked) [Example 121, 2-Octyldodecyl 3-ethyl-12-hexyl-6-isopropyl-10-oxo-9,11-dioxa-3,6-diazahenicosan-21-oate]
Nucleic acid encapsulation rate [1]: 91%
Particle size (nm) [2]: 63.2 nm
Relative amount of FVII protein (%) [5]: 10%
IC50 [4]: 39 nM
Nucleic acid encapsulation rate [6]: 70%
Particle size (nm) [7]: 65.8 nm

CCCCCCCOC(=O)CCN(CCOC(=O)OC(CCCCCC)CCCCCCCCC(=O)OCC(CCCC)CCCCCC)CCN(CC)CC (centres unmarked) [Example 122, 2-Butyloctyl 3-ethyl-6-(3-(heptyloxy)-3-oxopropyl)-12-hexyl-10-oxo-9,11-dioxa-3,6-diazahenicosan-21-oate]
Nucleic acid encapsulation rate [1]: 83%
Particle size (nm) [2]: 69.5 nm
Relative amount of FVII protein (%) [5]: 3%
IC50 [4]: 19 nM
Nucleic acid encapsulation rate [6]: 84%
Particle size (nm) [7]: 80.7 nm

CCCCCCCC(=O)OCCN(CCOC(=O)OC(CCCCCC)CCCCCCCCC(=O)OCC(CCCCC)CCCCC)CCN(CC)CC (centres unmarked) [Example 129, 2-Pentylheptyl 3-ethyl-12-hexyl-6-(2-(octanoyloxy)ethyl)-10-oxo-9,11-dioxa-3,6-diazahenicosan-21-oate]
Nucleic acid encapsulation rate [1]: 63%
Particle size (nm) [2]: 70.2 nm
Relative amount of FVII protein (%) [5]: 4%
IC50 [4]: 41 nM
Nucleic acid encapsulation rate [6]: 58%
Particle size (nm) [7]: 76.4 nm
